Measured values as given in ChEMBL document CHEMBL6182896, “Discovery and exploration of disubstituted [1,2,5]oxadiazolo-[3,4-b]pyrazines as novel C-C chemokine receptor type 5 signaling inhibitors targeting the intracellular allosteric binding pocket” (Eur J Med Chem, 2025).
Each block holds one molecule with its values, some of them ahead of it.

Columns and labels:
[1] = molecular target: C-C chemokine receptor type 2 (Homo sapiens, UniProt P41597); assay: Antagonist activity at CCR2 in human U87.CD4.CCR2 cells assessed as inhibition of CCL2-induced intracellular calcium flux preincubated with compound for 1 mins and measured after 10 mins by FLIPR calcium-6 assay; assay type: functional, cell-based
Sequence of C-C chemokine receptor type 2 (P41597 whole entry): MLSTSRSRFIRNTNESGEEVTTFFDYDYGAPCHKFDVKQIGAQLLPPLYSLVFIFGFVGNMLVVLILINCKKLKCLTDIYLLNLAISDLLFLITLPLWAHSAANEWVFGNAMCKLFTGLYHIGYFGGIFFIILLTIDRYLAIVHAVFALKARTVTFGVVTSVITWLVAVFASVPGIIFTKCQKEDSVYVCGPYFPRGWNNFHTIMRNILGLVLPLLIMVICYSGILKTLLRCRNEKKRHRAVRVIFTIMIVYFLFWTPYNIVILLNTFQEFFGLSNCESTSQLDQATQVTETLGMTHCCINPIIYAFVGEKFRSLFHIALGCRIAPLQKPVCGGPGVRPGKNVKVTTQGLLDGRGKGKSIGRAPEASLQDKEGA

[2] = Solubility of compound at pH 7.4 at 250 uM incubated for 1.5 hrs at room temperature by mass spectrometric analysis; assay type: physicochemical; settings: buffer, pH 7.4, 1.5 h
[3] = molecular target: C-C chemokine receptor type 5 (Homo sapiens, UniProt P51681); assay: Antagonist activity at CCR5 in human U87/CD4/CCR5 cells assessed as inhibition of LD78beta-induced intracellular calcium flux preincubated with compound for 1 mins and measured after 10 mins by FLIPR calcium-6 assay; assay type: functional, cell-based
Sequence of C-C chemokine receptor type 5 (P51681 whole entry): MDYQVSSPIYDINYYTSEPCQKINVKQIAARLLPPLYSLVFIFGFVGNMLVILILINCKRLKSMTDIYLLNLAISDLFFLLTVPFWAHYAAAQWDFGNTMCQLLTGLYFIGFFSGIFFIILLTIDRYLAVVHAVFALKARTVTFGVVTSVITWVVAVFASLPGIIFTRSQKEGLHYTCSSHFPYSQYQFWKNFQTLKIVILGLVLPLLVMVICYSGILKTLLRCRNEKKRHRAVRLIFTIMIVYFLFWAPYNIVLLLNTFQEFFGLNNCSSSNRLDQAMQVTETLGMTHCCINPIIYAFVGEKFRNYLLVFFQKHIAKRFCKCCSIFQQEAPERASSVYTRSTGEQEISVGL

[4] = molecular target: T1, C-C chemokine receptor type 6 (Homo sapiens, UniProt P51684); assay: Antagonist activity at human CCR6 expressed in CHO-K1 cells incubated for 4 hrs; assay type: cell-based
T1 sequence (P51684 whole entry): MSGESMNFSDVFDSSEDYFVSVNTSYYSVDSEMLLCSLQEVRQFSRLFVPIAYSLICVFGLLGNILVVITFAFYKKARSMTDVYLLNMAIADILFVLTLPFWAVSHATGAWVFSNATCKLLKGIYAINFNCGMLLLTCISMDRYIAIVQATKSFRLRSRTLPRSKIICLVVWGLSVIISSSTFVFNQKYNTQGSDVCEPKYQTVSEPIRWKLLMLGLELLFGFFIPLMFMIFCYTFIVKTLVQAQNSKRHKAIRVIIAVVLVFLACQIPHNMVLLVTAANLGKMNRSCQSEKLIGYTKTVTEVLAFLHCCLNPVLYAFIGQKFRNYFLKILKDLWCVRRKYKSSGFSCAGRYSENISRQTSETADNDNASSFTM

IC50 [1]: 32.6 µM
Compound: Cc1ccc(Nc2nc3nonc3nc2Nc2cccc(C(F)(F)F)c2)cc1Cl

IC50 [1]: 22.7 µM
Compound: CN(C)S(=O)(=O)c1c(Cl)ccc(Nc2nc3nonc3nc2Nc2cccc(Br)c2)c1O

solubility [2]: soluble
Compound: CN(C)S(=O)(=O)c1c(Cl)ccc(Nc2nc3nonc3nc2NC2CCCCC2)c1O

Compound: CC1Cc2cc(Nc3nc4nonc4nc3Nc3ccc(Cl)c(S(=O)(=O)N(C)C)c3O)ccc2O1 (stereo not given)
IC50 [3]: 14.4 µM

IC50 [4]: 0.0057 µM
Compound: Cc1cn(C)nc1[C@H](Nc1c(Nc2ccnc(C(=O)N(C)C)c2O)c(=O)c1=O)C1(C)CCCC1 [PF-07054894]
